“And” between values parts separate entries of the source, which are not always exact repeats. Identical values can stand only once.
System: PANC-1 complex spheroid growth, percent test/control
Assay: Anticancer human tumor PANC-1 cell line growth inhibition [Asc];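 note: spheroids exposed to agents for 7 days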;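 for viability, T/C: percent viability relative to DMSO vehicle wells taken as 100%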
Conditions: for viability, T/C: stronger effect = lower value
How it was run: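 Complex solid-tumor spheroids incorporating human endothelial and mesenchymal stem cells received single agents or combinations over half-log dilution ranges anchored to clinical Cmax.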

[1] = curve of first compound, second compound 0.00316 µM
[2] = curve of first compound, second compound 0.01 µM
[3] = curve of first compound, second compound 0.0316 µM
[4] = curve of first compound, second compound 0.1 µM
[5] = curve of first compound, second compound 0.316 µM
[6] = curve of first compound, second compound 1 µM
[7] = second compound 0.00316 µM, first compound 0.00949 µM
[8] = second compound 0.00316 µM, first compound 0.03 µM
[9] = second compound 0.00316 µM, first compound 0.0949 µM
[10] = second compound 0.00316 µM, first compound 0.3 µM
[11] = second compound 0.01 µM, first compound 0.00949 µM
[12] = second compound 0.01 µM, first compound 0.03 µM
[13] = second compound 0.01 µM, first compound 0.0949 µM
[14] = second compound 0.01 µM, first compound 0.3 µM
[15] = second compound 0.0316 µM, first compound 0.00949 µM
[16] = second compound 0.0316 µM, first compound 0.03 µM
[17] = second compound 0.0316 µM, first compound 0.0949 µM
[18] = second compound 0.0316 µM, first compound 0.3 µM
[19] = second compound 0.1 µM, first compound 0.00949 µM
[20] = second compound 0.1 µM, first compound 0.03 µM
[21] = second compound 0.1 µM, first compound 0.0949 µM
[22] = second compound 0.1 µM, first compound 0.3 µM
[23] = second compound 0.316 µM, first compound 0.00949 µM
[24] = second compound 0.316 µM, first compound 0.03 µM
[25] = second compound 0.316 µM, first compound 0.0949 µM
[26] = second compound 0.316 µM, first compound 0.3 µM
[27] = second compound 1 µM, first compound 0.00949 µM
[28] = second compound 1 µM, first compound 0.03 µM
[29] = second compound 1 µM, first compound 0.0949 µM
[30] = second compound 1 µM, first compound 0.3 µM

Compound: CCN1C(C(=O)NC23CCC(C(=O)O)(CC2)CC3)C(c2cccc(Cl)c2F)C2(C(=O)Nc3cc(Cl)ccc32)C12CCCCC2 (configuration not stated) + CNC(C)C(=O)NC1CN(S(=O)(=O)c2cccc(S(=O)(=O)N3CCC4CCC(C(=O)NC(c5ccccc5)c5ccccc5)N4C(=O)C(NC(=O)C(C)NC)C3)c2)CCC2CCC(C(=O)NC(c3ccccc3)c3ccccc3)N2C1=O
- IC50 [1]: > 3000 nM
- IC50 [2]: > 3000 nM
- IC50 [3]: > 3000 nM
- IC50 [4]: > 3000 nM
- IC50 [5]: > 3000 nM
- IC50 [6]: > 3000 nM
- viability, T/C [7]: 103%
- viability, T/C [8]: 97.6%
- viability, T/C [9]: 101%
- viability, T/C [10]: 103%
- viability, T/C (second compound 0.00316 µM, first compound 0.949 µM): 113%
- viability, T/C (second compound 0.00316 µM, first compound 3 µM): 124%
- viability, T/C [11]: 109%
- viability, T/C [12]: 92.5%
- viability, T/C [13]: 98.2%
- viability, T/C [14]: 97.2%
- viability, T/C (second compound 0.01 µM, first compound 0.949 µM): 106%
- viability, T/C (second compound 0.01 µM, first compound 3 µM): 126%
- viability, T/C [15]: 97.2%
- viability, T/C [16]: 99.6%
- viability, T/C [17]: 101%
- viability, T/C [18]: 95.8%
- viability, T/C (second compound 0.0316 µM, first compound 0.949 µM): 104%
- viability, T/C (second compound 0.0316 µM, first compound 3 µM): 125%
- viability, T/C [19]: 97.5%
- viability, T/C [20]: 99.3%
- viability, T/C [21]: 96.7%
- viability, T/C [22]: 109%
- viability, T/C (second compound 0.1 µM, first compound 0.949 µM): 105%
- viability, T/C (second compound 0.1 µM, first compound 3 µM): 121%
- viability, T/C [23]: 99.2%
- viability, T/C [24]: 102%
- viability, T/C [25]: 106%
- viability, T/C [26]: 92.6%
- viability, T/C (second compound 0.316 µM, first compound 0.949 µM): 103%
- viability, T/C (second compound 0.316 µM, first compound 3 µM): 108%
- viability, T/C [27]: 96.9%
- viability, T/C [28]: 103%
- viability, T/C [29]: 98%
- viability, T/C [30]: 101%
- viability, T/C (second compound 1 µM, first compound 0.949 µM): 116%
- viability, T/C (second compound 1 µM, first compound 3 µM): 107%

Compound: C=CC(=O)N1CCN(c2nc(=O)n(-c3c(C)ccnc3C(C)C)c3nc(-c4c(O)cccc4F)c(F)cc23)C(C)C1 (configuration not stated)
- viability, T/C (compound 0.0316 µM): 105% and 97.2% and 101%
- viability, T/C (compound 0.1 µM): 96% and 89.2% and 90%
- viability, T/C (compound 0.316 µM): 104% and 106% and 98%
- viability, T/C (compound 1 µM): 101% and 89.2% and 96.2%
- viability, T/C (compound 3.16 µM): 85.8% and 99.7% and 91.8%
- viability, T/C (compound 10 µM): 93.4% and 87.1% and 88%
- IC50 (curve of compound): > 10000 nM

Compound: NC(=O)C(=Cn1cnc(-c2cc(C(F)(F)F)cc(C(F)(F)F)c2)n1)c1cncnc1 + CNC(C)C(=O)NC1CN(S(=O)(=O)c2cccc(S(=O)(=O)N3CCC4CCC(C(=O)NC(c5ccccc5)c5ccccc5)N4C(=O)C(NC(=O)C(C)NC)C3)c2)CCC2CCC(C(=O)NC(c3ccccc3)c3ccccc3)N2C1=O
- IC50 [1]: > 300 nM
- IC50 [2]: > 300 nM
- IC50 [3]: > 300 nM
- IC50 [4]: > 300 nM
- IC50 [5]: > 300 nM
- IC50 [6]: > 300 nM
- viability, T/C (second compound 0.00316 µM, first compound 0.000949 µM): 103%
- viability, T/C (second compound 0.00316 µM, first compound 0.003 µM): 80.5%
- viability, T/C [7]: 90.2%
- viability, T/C [8]: 91.6%
- viability, T/C [9]: 102%
- viability, T/C [10]: 95.3%
- viability, T/C (second compound 0.01 µM, first compound 0.000949 µM): 87%
- viability, T/C (second compound 0.01 µM, first compound 0.003 µM): 89.9%
- viability, T/C [11]: 89.3%
- viability, T/C [12]: 87.6%
- viability, T/C [13]: 95.3%
- viability, T/C [14]: 85.2%
- viability, T/C (second compound 0.0316 µM, first compound 0.000949 µM): 82%
- viability, T/C (second compound 0.0316 µM, first compound 0.003 µM): 91.4%
- viability, T/C [15]: 83.3%
- viability, T/C [16]: 81%
- viability, T/C [17]: 90.5%
- viability, T/C [18]: 78.3%
- viability, T/C (second compound 0.1 µM, first compound 0.000949 µM): 84%
- viability, T/C (second compound 0.1 µM, first compound 0.003 µM): 83.1%
- viability, T/C [19]: 79.9%
- viability, T/C [20]: 91.3%
- viability, T/C [21]: 102%
- viability, T/C [22]: 80.5%
- viability, T/C (second compound 0.316 µM, first compound 0.000949 µM): 89.2%
- viability, T/C (second compound 0.316 µM, first compound 0.003 µM): 78%
- viability, T/C [23]: 79.2%
- viability, T/C [24]: 81.5%
- viability, T/C [25]: 103%
- viability, T/C [26]: 71.9%
- viability, T/C (second compound 1 µM, first compound 0.000949 µM): 78.3%
- viability, T/C (second compound 1 µM, first compound 0.003 µM): 90.7%
- viability, T/C [27]: 79.7%
- viability, T/C [28]: 85.3%
- viability, T/C [29]: 88.8%
- viability, T/C [30]: 66.7%

Compound: COc1c(OCCCN2CCOCC2)ccc2c3n(c(=NC(=O)c4cnc(N)nc4)nc12)CCN3
- viability, T/C (compound 0.00316 µM): 101% and 93.1% and 100%
- viability, T/C (compound 0.01 µM): 89.9% and 93.9% and 92.4%
- viability, T/C (compound 0.0316 µM): 92% and 108% and 94.5%
- viability, T/C (compound 0.1 µM): 78.6% and 67.6% and 82.1%
- viability, T/C (compound 0.316 µM): 52.2% and 63.2% and 49.7%
- viability, T/C (compound 1 µM): 39.4% and 36.3% and 28.6%
- IC50 (curve of compound): 511 nM and 302 nM and 385 nM

Compound: COc1c(OCCCN2CCOCC2)ccc2c3n(c(=NC(=O)c4cnc(N)nc4)nc12)CCN3 + Cc1c(S(C)(=O)=O)c(-c2cc(F)cc(N3CCN(c4ccc(NS(=O)(=O)c5ccc(NC(CCN6CCC(C(=O)OCCCP(=O)(O)O)CC6)CSc6ccccc6)c(S(=O)(=O)C(F)(F)F)c5)cc4)CC3)c2)c(-c2ccc(Cl)cc2)n1C(C)C
- IC50 [3]: 536 nM
- IC50 [4]: 420 nM
- IC50 [5]: 314 nM
- IC50 [6]: 304 nM
- IC50 (curve of first compound, second compound 3.16 µM): 282 nM
- IC50 (curve of first compound, second compound 10 µM): 264 nM
- viability, T/C (second compound 0.0316 µM, first compound 0.00316 µM): 103%
- viability, T/C (second compound 0.0316 µM, first compound 0.01 µM): 98.5%
- viability, T/C (second compound 0.0316 µM, first compound 0.0316 µM): 95.7%
- viability, T/C (second compound 0.0316 µM, first compound 0.1 µM): 73.7%
- viability, T/C (second compound 0.0316 µM, first compound 0.316 µM): 69.4%
- viability, T/C (second compound 0.0316 µM, first compound 1 µM): 32.6%
- viability, T/C (second compound 0.1 µM, first compound 0.00316 µM): 98%
- viability, T/C (second compound 0.1 µM, first compound 0.01 µM): 105%
- viability, T/C (second compound 0.1 µM, first compound 0.0316 µM): 94.7%
- viability, T/C (second compound 0.1 µM, first compound 0.1 µM): 72.8%
- viability, T/C (second compound 0.1 µM, first compound 0.316 µM): 60.2%
- viability, T/C (second compound 0.1 µM, first compound 1 µM): 28.5%
- viability, T/C (second compound 0.316 µM, first compound 0.00316 µM): 107%
- viability, T/C (second compound 0.316 µM, first compound 0.01 µM): 106%
- viability, T/C (second compound 0.316 µM, first compound 0.0316 µM): 91.1%
- viability, T/C (second compound 0.316 µM, first compound 0.1 µM): 58.2%
- viability, T/C (second compound 0.316 µM, first compound 0.316 µM): 59%
- viability, T/C (second compound 0.316 µM, first compound 1 µM): 25.7%
- viability, T/C (second compound 1 µM, first compound 0.00316 µM): 104%
- viability, T/C (second compound 1 µM, first compound 0.01 µM): 97.8%
- viability, T/C (second compound 1 µM, first compound 0.0316 µM): 99.8%
- viability, T/C (second compound 1 µM, first compound 0.1 µM): 67.4%
- viability, T/C (second compound 1 µM, first compound 0.316 µM): 52.9%
- viability, T/C (second compound 1 µM, first compound 1 µM): 24.1%
- viability, T/C (second compound 3.16 µM, first compound 0.00316 µM): 122%
- viability, T/C (second compound 3.16 µM, first compound 0.01 µM): 106%
- viability, T/C (second compound 3.16 µM, first compound 0.0316 µM): 86.8%
- viability, T/C (second compound 3.16 µM, first compound 0.1 µM): 65.8%
- viability, T/C (second compound 3.16 µM, first compound 0.316 µM): 53.8%
- viability, T/C (second compound 3.16 µM, first compound 1 µM): 23.9%
- viability, T/C (second compound 10 µM, first compound 0.00316 µM): 171%
- viability, T/C (second compound 10 µM, first compound 0.01 µM): 198%
- viability, T/C (second compound 10 µM, first compound 0.0316 µM): 131%
- viability, T/C (second compound 10 µM, first compound 0.1 µM): 78.1%
- viability, T/C (second compound 10 µM, first compound 0.316 µM): 52.5%
- viability, T/C (second compound 10 µM, first compound 1 µM): 31.7%

Compound: O=C(c1cc(Cc2n[nH]c(=O)c3ccccc23)ccc1F)N1CCN(C(=O)C2CC2)CC1
- viability, T/C (compound 0.0316 µM): 93.1% and 94.8% and 102%
- viability, T/C (compound 0.1 µM): 92.7% and 90.1% and 94.9%
- viability, T/C (compound 0.316 µM): 99.7% and 109% and 102%
- viability, T/C (compound 1 µM): 101% and 112% and 116%
- viability, T/C (compound 3.16 µM): 113% and 107% and 103%
- viability, T/C (compound 10 µM): 101% and 95.9% and 103%
- IC50 (curve of compound): > 10000 nM

— PubChem BioAssay AID1963435 (Molecular Pharmacology Branch, DTP, NCI, 2024)
